Assays:
[1] = biological target: Carbonic anhydrase 5B, mitochondrial (Homo sapiens) (UniProt Q9Y2D0)
Description: Inhibition of human recombinant full length carbonic hydrase 5B by stopped-flow assay

[2] = biological target: Carbonic anhydrase 1 (Homo sapiens) (UniProt P00915)
Description: Inhibition of human recombinant full length carbonic hydrase 1 by stopped-flow assay

[3] = biological target: Carbonic anhydrase 2 (Homo sapiens) (UniProt P00918)
Description: Inhibition of human recombinant full length carbonic hydrase 2 by stopped-flow assay

[4] = biological target: Carbonic anhydrase 12 (Homo sapiens) (UniProt O43570)
Description: Inhibition of human catalytic domain carbonic hydrase 12 by stopped-flow assay

[5] = biological target: Carbonic anhydrase 9 (Homo sapiens) (UniProt Q16790)
Description: Inhibition of human catalytic domain carbonic hydrase 9 by stopped-flow assay

[6] = biological target: Carbonic anhydrase 14 (Homo sapiens) (UniProt Q9ULX7)
Description: Inhibition of human recombinant full length carbonic hydrase 14 by stopped-flow assay

[7] = biological target: Carbonic anhydrase 6 (Homo sapiens) (UniProt P23280)
Description: Inhibition of human recombinant full length carbonic hydrase 6 by stopped-flow assay

[8] = biological target: Carbonic anhydrase 7 (Homo sapiens) (UniProt P43166)
Description: Inhibition of human recombinant full length carbonic hydrase 7 by stopped-flow assay

[9] = biological target: Carbonic anhydrase 13 (Mus musculus) (UniProt Q9D6N1); test: Inhibition of mouse recombinant full length carbonic hydrase 13 by stopped-flow assay
[10] = biological target: Carbonic anhydrase 4 (Homo sapiens) (UniProt P22748)
Description: Inhibition of human recombinant full length carbonic hydrase 4 by stopped-flow assay

[11] = biological target: Carbonic anhydrase 3 (Homo sapiens) (UniProt P07451)
Description: Inhibition of human recombinant full length carbonic hydrase 3 by stopped-flow assay

[12] = biological target: Carbonic anhydrase 5A, mitochondrial (Homo sapiens) (UniProt P35218)
Chain of Carbonic anhydrase 5A, mitochondrial (Homo sapiens) (P35218 whole entry): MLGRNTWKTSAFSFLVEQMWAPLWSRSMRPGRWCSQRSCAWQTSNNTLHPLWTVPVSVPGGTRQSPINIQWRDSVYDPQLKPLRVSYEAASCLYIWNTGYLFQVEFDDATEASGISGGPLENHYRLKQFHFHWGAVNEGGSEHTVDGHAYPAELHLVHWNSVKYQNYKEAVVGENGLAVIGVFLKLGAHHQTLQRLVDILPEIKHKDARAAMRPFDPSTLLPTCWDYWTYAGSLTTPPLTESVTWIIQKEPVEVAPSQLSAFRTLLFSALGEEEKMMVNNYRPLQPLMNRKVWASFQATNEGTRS
Description: Inhibition of human recombinant full length carbonic hydrase 5A by stopped-flow assay

Chain of Carbonic anhydrase 13 (Mus musculus) (Q9D6N1 whole entry, looked up): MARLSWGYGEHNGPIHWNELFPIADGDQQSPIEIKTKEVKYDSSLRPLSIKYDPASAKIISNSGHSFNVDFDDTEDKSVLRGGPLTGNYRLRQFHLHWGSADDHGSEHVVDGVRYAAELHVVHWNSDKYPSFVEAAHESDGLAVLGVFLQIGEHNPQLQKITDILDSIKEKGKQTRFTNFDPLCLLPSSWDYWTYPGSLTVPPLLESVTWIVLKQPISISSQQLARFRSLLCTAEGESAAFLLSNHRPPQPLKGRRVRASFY
Chain of Carbonic anhydrase 3 (Homo sapiens) (P07451 whole entry): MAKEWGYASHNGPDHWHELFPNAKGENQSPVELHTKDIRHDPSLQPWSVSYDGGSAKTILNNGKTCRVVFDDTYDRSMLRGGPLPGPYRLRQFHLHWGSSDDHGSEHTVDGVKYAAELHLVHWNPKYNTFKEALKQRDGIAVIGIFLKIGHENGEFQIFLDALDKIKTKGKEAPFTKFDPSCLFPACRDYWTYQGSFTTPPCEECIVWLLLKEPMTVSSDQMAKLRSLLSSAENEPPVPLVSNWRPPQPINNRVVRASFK
Chain of Carbonic anhydrase 6 (Homo sapiens) (P23280 whole entry): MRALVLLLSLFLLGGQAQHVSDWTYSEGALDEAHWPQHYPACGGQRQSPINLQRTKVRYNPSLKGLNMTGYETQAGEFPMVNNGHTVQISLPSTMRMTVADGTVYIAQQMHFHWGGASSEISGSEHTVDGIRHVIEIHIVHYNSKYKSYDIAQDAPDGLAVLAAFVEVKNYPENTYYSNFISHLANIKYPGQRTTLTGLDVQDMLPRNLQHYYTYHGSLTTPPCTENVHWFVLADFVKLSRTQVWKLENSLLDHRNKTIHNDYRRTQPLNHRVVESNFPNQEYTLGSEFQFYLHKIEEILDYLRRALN
Chain of Carbonic anhydrase 4 (Homo sapiens) (P22748 whole entry): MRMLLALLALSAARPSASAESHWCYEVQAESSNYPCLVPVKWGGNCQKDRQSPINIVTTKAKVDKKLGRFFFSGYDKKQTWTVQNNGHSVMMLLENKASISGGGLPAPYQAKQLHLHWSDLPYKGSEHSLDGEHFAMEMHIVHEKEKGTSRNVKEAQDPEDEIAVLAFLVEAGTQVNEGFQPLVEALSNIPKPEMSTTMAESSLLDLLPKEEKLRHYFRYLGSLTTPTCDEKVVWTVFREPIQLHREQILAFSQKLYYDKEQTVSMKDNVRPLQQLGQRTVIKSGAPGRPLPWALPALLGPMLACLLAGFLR
Chain of Carbonic anhydrase 1 (Homo sapiens) (P00915 2-261 limits assumed): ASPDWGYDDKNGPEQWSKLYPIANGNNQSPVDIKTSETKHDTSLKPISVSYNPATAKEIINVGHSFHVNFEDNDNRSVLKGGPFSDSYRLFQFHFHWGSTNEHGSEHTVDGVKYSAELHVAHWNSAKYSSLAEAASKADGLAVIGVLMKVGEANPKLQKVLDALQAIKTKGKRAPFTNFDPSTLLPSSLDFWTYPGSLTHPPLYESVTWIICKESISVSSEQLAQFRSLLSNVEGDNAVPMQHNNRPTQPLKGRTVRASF
Chain of Carbonic anhydrase 14 (Homo sapiens) (Q9ULX7 whole entry): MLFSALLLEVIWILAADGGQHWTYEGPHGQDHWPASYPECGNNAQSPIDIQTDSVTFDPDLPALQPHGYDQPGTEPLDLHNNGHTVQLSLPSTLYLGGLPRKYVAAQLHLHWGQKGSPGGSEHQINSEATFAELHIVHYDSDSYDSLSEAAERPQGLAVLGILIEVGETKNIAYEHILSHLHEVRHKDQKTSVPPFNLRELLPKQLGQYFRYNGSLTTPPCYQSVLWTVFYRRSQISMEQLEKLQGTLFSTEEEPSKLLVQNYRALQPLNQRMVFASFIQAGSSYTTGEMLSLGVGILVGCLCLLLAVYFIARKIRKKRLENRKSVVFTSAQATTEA
Chain of Carbonic anhydrase 12 (Homo sapiens) (O43570 whole entry): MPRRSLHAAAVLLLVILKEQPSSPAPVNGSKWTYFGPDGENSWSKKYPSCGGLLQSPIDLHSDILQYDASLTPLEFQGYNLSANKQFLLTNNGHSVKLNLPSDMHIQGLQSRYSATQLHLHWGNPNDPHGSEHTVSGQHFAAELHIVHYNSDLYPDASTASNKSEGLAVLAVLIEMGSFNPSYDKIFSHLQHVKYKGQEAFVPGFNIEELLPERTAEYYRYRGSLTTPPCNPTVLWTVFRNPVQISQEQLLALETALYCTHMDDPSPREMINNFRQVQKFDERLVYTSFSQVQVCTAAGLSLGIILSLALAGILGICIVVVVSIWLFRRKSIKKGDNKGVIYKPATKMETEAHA
Chain of Carbonic anhydrase 7 (Homo sapiens) (P43166 whole entry): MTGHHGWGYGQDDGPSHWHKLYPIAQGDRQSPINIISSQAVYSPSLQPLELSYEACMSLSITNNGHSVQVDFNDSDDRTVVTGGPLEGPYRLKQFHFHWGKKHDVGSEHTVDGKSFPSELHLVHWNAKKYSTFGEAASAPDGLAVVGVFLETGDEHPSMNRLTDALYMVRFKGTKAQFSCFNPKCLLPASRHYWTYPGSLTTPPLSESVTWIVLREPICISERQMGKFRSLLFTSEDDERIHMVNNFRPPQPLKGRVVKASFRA
Chain of Carbonic anhydrase 5B, mitochondrial (Homo sapiens) (Q9Y2D0 whole entry): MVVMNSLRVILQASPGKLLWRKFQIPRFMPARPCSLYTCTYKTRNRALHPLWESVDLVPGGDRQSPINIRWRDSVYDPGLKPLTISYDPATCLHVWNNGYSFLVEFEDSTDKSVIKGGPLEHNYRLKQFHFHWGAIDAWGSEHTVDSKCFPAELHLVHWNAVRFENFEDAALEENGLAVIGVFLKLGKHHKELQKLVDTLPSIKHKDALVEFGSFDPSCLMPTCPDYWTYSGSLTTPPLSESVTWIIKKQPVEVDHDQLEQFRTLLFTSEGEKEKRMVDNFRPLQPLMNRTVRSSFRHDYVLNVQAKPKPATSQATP

Row | Ki [1] [µM] | Ki [2] [µM] | Ki [3] [µM] | Kinact [4] [µM] | Kinact [5] [µM] | Kinact [6] [µM] | Ki [7] [µM] | Kinact [8] [µM] | Kinact [9] [µM] | Ki [10] [µM] | Ki [11] [µM] | Ki [12] [µM] | Structure (SMILES)
1 | 98.4 | 38.8 | 33.9 | 70.2 | 9.4 | 10.6 | 82.6 | 163 | 84.2 | 10.7 | 0.71 | 65 | Oc1cc(F)cc(F)c1
2 | – | 6.6 | 6.5 | 8.1 | 5.6 | 5 | 5.3 | 16 | 4.9 | 5.4 | 3.3 | 8.3 | Oc1c(I)cc(Cl)c2cccnc12
3 | – | – | – | – | – | – | 0.01 | – | 0.019 | – | 710 | 0.065 | CC(=O)/N=c1/sc(S(N)(=O)=O)nn1C

From ChEMBL document CHEMBL1141622, “Carbonic anhydrase inhibitors: interactions of phenols with the 12 catalytically active mammalian isoforms (CA I-XIV)” (Bioorg Med Chem Lett, 2008)
